# Laboratory results reported in ChEMBL document CHEMBL1201862, “PubChem BioAssay data set” (2004).
# Active and inactive are the calls of the source.
# Tests used:
# [1] = biological target: T1, Mannose-6-phosphate isomerase (Homo sapiens, UniProt P34949); test: MPI inhibition at elevated mannose 6-phosphate – biochemical, fluorescence intensity, high mannose 6-phosphate, primary screen (AID 1220)
# T1 sequence (P34949 whole entry): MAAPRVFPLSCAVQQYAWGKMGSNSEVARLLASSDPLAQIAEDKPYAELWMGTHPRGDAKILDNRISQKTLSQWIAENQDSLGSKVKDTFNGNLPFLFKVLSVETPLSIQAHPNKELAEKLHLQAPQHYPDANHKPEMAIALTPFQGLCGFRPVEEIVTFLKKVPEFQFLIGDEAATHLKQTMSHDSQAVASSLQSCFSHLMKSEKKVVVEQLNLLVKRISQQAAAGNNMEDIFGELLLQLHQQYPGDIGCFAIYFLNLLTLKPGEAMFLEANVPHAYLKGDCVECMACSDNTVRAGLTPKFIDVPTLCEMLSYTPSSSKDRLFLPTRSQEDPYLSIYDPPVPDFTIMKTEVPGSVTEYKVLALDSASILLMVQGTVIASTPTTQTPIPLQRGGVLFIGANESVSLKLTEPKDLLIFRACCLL
# Nonstructural protein 1 = Nonstructural protein 1 (Influenza A virus, UniProt Q194T2); assay type: functional, Influenza A virus (A/California/07/2009(H1N1))
# Vero = test: viability of Vero cells under compound – cytotoxicity control for flavivirus capping enzyme inhibitors (AID 588742); assay type: functional; settings: Chlorocebus sabaeus
# [2] = viability of uninfected HEp-2 cells – cell-based, HTS, cytotoxicity control for RSV inhibitor project, dose response (AID 2410); assay type: functional; settings: human respiratory syncytial virus
# [3] = biological target: Transitional endoplasmic reticulum ATPase (Homo sapiens, UniProt P55072, C522A); test: C522A mutant p97 ATPase inhibitors, dose response, counter-screen for p97 inhibitor project, biochemical, luminescence (AID 1544)
# Chain of Transitional endoplasmic reticulum ATPase (Homo sapiens, UniProt P55072, C522A) (P55072 2-806 C522A limits assumed): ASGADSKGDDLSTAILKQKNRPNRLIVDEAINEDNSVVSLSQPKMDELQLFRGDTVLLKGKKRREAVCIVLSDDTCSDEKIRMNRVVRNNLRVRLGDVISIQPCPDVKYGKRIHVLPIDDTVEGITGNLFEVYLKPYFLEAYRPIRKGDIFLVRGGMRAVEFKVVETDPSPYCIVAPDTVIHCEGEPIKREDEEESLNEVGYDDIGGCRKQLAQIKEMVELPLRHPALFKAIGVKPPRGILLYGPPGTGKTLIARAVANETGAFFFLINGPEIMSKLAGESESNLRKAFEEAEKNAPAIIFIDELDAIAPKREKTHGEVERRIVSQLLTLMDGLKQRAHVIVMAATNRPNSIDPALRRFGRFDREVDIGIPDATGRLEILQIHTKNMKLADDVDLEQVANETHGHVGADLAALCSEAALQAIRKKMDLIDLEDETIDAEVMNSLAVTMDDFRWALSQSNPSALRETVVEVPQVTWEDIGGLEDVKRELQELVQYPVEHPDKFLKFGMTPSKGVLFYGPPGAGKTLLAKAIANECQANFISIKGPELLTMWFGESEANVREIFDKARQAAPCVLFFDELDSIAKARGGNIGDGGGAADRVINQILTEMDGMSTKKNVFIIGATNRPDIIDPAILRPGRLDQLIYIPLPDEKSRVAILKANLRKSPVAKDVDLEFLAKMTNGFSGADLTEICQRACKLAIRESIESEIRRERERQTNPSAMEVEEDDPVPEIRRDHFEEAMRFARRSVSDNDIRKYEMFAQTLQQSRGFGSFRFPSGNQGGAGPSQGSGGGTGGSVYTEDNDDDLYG
# [4] = biological target: Transitional endoplasmic reticulum ATPase (Homo sapiens, UniProt P55072); test: p97 ATPase inhibitors, dose response, biochemical (AID 1534)
# Chain of Transitional endoplasmic reticulum ATPase (Homo sapiens, UniProt P55072) (P55072 whole entry): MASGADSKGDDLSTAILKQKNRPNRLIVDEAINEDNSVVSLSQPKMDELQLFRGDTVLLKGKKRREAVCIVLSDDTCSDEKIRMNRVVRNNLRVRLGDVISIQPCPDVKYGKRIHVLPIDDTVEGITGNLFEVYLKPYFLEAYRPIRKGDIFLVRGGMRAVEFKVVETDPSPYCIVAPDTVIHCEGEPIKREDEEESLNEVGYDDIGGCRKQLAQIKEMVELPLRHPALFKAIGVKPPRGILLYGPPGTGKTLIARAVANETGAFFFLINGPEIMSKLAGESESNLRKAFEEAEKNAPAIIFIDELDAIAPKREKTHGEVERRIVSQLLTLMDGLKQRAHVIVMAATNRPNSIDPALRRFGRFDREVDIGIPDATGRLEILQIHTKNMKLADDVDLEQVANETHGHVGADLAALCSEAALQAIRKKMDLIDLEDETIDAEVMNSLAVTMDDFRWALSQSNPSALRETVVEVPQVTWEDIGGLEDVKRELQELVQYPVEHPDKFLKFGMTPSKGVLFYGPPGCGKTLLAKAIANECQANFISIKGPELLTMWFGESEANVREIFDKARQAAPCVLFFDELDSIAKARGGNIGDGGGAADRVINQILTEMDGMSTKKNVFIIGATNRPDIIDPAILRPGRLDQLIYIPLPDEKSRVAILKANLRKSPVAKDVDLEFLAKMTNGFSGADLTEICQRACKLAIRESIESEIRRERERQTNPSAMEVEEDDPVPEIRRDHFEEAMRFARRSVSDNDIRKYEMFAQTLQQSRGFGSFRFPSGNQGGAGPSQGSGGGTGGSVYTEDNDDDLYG
# 14-3-3 protein gamma = 14-3-3 protein gamma (Homo sapiens, UniProt P61981); test: modulators of 14-3-3 gamma client binding – dose response (AID 711); assay type: functional
# Chain of 14-3-3 protein gamma (P61981 whole entry): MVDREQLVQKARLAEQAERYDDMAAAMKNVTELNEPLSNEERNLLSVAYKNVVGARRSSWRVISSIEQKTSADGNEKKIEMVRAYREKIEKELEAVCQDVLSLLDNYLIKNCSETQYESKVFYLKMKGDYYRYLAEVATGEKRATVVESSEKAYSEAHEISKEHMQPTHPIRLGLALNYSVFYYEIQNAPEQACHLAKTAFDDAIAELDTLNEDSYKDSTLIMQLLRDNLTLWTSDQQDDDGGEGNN
# [5] = biological target: T2, Alkaline phosphatase, tissue-nonspecific isozyme (Homo sapiens, UniProt P05186)
# T2 sequence (P05186 whole entry): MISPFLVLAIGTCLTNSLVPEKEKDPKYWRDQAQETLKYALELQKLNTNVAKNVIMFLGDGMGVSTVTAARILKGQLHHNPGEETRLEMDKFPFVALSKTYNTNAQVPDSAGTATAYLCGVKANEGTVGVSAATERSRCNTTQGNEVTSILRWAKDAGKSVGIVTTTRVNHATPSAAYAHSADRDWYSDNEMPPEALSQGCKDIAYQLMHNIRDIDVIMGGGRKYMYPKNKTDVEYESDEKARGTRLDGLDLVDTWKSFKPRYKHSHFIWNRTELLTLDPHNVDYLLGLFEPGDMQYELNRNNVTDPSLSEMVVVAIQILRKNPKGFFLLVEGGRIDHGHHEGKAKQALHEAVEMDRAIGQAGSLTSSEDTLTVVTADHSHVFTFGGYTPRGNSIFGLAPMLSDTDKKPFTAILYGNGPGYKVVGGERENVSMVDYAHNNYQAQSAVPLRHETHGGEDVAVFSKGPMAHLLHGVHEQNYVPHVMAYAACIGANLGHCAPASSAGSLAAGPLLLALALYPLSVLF
# [6] = biological target: Peroxisome proliferator-activated receptor gamma/Nuclear receptor coactivator 2 (Homo sapiens, UniProt P37231); assay type: functional;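 also: agonist potency for raising coactivator recruitment to the receptor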
# [7] = biological target: Peroxisome proliferator-activated receptor gamma/Nuclear receptor coactivator 1 (Homo sapiens, UniProt P37231); assay type: functional;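 also: agonist potency as compounds enhance coactivator SRC-1 recruitment to PPARgamma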
# Chain of Peroxisome proliferator-activated receptor gamma/Nuclear receptor coactivator 1 (P37231 whole entry): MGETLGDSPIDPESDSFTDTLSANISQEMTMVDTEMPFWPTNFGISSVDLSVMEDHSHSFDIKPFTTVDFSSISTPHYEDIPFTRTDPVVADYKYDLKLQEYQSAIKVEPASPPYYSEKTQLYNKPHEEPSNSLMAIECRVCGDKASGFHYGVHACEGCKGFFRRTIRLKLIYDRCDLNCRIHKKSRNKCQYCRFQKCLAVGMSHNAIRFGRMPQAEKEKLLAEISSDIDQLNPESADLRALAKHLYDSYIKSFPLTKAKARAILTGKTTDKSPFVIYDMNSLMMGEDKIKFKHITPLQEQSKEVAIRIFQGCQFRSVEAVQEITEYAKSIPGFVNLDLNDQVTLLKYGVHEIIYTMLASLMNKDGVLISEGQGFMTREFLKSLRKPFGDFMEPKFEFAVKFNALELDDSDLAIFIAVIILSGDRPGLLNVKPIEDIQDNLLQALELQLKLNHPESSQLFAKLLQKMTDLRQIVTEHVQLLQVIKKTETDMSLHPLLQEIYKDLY
# Chain of Peroxisome proliferator-activated receptor gamma/Nuclear receptor coactivator 1 (Q15788 whole entry, further chain): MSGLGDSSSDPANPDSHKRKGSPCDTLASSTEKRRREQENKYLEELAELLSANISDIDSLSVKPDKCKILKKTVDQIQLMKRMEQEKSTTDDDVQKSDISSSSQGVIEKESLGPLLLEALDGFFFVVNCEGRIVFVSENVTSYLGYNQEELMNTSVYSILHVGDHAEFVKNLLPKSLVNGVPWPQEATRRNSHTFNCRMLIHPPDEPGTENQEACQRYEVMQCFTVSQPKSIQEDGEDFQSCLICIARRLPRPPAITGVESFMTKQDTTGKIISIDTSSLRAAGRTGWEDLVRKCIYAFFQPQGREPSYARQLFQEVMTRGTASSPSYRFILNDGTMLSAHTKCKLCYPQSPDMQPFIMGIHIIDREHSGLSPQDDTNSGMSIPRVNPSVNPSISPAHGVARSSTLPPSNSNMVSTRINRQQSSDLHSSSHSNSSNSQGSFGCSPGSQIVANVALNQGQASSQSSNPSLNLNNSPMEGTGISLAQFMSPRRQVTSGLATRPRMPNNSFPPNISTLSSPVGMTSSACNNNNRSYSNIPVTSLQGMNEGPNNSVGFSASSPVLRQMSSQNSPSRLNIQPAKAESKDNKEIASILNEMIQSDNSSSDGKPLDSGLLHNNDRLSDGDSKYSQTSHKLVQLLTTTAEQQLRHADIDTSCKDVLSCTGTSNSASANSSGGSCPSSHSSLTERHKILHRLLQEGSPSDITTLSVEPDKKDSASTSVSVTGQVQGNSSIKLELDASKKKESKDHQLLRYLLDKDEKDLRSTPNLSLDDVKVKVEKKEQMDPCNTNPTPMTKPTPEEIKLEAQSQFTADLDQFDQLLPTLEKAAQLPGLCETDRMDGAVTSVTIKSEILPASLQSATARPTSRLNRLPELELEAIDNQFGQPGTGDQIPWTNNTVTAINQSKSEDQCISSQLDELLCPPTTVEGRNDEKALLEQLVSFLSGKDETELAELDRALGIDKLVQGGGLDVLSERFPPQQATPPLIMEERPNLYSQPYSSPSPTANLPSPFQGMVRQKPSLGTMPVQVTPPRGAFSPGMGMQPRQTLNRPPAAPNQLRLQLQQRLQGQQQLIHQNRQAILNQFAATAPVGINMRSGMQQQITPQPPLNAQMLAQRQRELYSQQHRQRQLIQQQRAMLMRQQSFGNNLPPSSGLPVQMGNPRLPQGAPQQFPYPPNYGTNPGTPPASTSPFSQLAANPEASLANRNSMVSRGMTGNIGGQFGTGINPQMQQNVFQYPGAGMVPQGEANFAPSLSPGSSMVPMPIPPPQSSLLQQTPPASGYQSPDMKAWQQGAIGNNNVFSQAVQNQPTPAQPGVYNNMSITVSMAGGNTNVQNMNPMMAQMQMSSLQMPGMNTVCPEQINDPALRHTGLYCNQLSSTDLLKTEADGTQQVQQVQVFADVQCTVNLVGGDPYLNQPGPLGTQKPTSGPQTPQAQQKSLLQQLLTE
# [8] = biological target: Peroxisome proliferator-activated receptor gamma/Nuclear receptor coactivator 3 (Homo sapiens, UniProt P37231); assay type: functional;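 also: agonist potency for raising coactivator recruitment to the receptor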
# Estrogen receptor beta = Estrogen receptor beta (Homo sapiens, UniProt Q92731);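 also: recombinant ER-beta bound to coactivator SRC1 peptide in presence of estradiol agonist; inhibitors block coactivator peptide binding and lower the FRET signal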
# H9c2 = test: cells; assay type: functional, cell-based; settings: Rattus norvegicus, H9c2, Myocardium;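 also: confirmatory concentration-response retest of ultra-high-throughput screening hits for modulation of myocardial damage; cell death induced by hydrogen peroxide oxidative stress; compound pretreatment for 60 min then peroxide exposure for 2 h; potency is for protecting the cells against peroxide damage rather than for killing them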
# [9] = biological target: T3, Heat shock factor protein 1 (Mus musculus, UniProt P38532); test: decrease of HSF1-responsive luciferase luminescence – cell-based, NIH3T3, dose retest, confirmation (AID 2382); assay type: functional;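 also: NIH3T3 fibroblasts with HSF1-driven luciferase reporter stressed by proteasome inhibitor MG132; luminescence from HSF1-driven luciferase expression after 8 hours of MG132 stress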
# T3 sequence (P38532 whole entry): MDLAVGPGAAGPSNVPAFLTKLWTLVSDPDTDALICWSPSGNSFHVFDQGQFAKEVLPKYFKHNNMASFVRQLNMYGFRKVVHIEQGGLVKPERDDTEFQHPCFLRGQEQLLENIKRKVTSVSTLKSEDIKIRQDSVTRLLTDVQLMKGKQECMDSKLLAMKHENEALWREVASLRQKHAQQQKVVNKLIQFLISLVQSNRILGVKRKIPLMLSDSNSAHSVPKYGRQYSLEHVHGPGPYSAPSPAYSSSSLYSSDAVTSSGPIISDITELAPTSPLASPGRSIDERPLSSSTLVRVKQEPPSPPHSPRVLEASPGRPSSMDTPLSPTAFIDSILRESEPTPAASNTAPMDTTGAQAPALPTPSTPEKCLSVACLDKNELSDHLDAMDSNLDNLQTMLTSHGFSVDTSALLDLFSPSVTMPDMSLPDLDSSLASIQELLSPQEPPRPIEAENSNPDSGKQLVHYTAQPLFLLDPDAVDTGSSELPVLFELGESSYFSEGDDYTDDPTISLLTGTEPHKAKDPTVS
# [10] = A Cell Based Secondary Assay To Explore Cytotoxicity of Compounds that Sensitize Mycobacterium Tuberculosis to Beta-Lactam Antibiotics.; assay type: functional
# [11] = viability of PTEN-deleted HCT116 cells – cell-based, HCT116 PTEN knockout, dose response (AID 1047); assay type: functional;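 also: HCT116 colon tumor cells with PTEN knocked out; cells exposed to compound for 60 hours before readout; potency for loss of cell viability measured by luminescence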
# [12] = viability of HCT116 lacking mutant beta-catenin – cell-based, human colon tumor, dose response (AID 1045); assay type: functional;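 also: HCT116 colon tumor cells with beta catenin knocked out; cells exposed to compound for 60 hours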
# [13] = Luminescence Cell-Based Dose Retest to Confirm Inhibitors of Cancer Stem Cells. [Related pubchem assays (depositor defined):AID2717, AID2721]; assay type: functional; settings: Homo sapiens
# X-box-binding protein 1 = X-box-binding protein 1 (Homo sapiens, UniProt P17861); assay type: functional, Cricetulus griseus;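 also: confirmatory dose-response counter-screen serving a CHOP assay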
# Chain of X-box-binding protein 1 (P17861 whole entry): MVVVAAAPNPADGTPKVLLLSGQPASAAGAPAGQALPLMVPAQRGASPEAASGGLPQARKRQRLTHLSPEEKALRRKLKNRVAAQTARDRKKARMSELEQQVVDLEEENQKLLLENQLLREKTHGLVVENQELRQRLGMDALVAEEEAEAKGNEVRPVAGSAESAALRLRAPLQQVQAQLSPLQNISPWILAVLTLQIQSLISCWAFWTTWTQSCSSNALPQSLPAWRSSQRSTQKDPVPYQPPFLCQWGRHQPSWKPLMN
# [14] = HEK-293T cell viability reduction – luminescence, B-cell screen hits, cytotoxicity control for BCR NF-kB inhibitor project, dose response (AID 489021); assay type: functional, cell-based;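 also: HEK-293T cells carrying an NF-kB luciferase reporter; cells exposed to compound for about 14 hours before viability readout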
# Genome polyprotein = Genome polyprotein (Hepatitis C virus, UniProt Q2Q167); test: disruption of hepatitis C core self-association – biochemical, TR-FRET, dose response (AID 2159); set-up: species or system Hepacivirus hominis;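 also: blocks dimerization of HCV core protein measured by TR-FRET between tagged core106 pairs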
# Chain of Genome polyprotein (Q2Q167 whole entry): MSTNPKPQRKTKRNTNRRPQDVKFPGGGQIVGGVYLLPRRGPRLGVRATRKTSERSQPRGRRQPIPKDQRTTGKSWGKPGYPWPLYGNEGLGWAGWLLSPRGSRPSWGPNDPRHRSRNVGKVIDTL
# [15] = biological target: Induced myeloid leukemia cell differentiation protein Mcl-1 (Homo sapiens, UniProt Q07820); assay type: functional
# [16] = biological target: T4, Probable nicotinate-nucleotide adenylyltransferase (Staphylococcus aureus (strain N315), UniProt P65502); assay type: functional, Staphylococcus aureus subsp. aureus N315;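 as to IC50 Mean: confirmatory dose-response retesting of NadD inhibitor hits first found in an ultra-high-throughput screen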
# T4 sequence (P65502 whole entry): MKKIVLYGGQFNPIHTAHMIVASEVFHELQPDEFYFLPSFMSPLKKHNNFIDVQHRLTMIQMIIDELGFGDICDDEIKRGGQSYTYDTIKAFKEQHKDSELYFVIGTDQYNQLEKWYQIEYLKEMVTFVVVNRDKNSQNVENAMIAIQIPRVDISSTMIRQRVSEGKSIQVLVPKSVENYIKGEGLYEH
# [17] = biological target: T4, Probable nicotinate-nucleotide adenylyltransferase; assay type: functional, Staphylococcus aureus subsp. aureus N315; settings: read-out: IC50_Mean
# [18] = test system: Streptococcus sp. 'group A'; test: Streptococcus pyogenes SK(-)GAS viability under kanamycin – luminescence, BacTiterGlo, confirmation, counter-screen for streptokinase expression inhibitor project, dose response (AID 1900); assay type: functional, organism-based
# Streptokinase A = biological target: T5, Streptokinase A (Streptococcus pyogenes serotype M1, UniProt P10520); test: viability-normalized secreted streptokinase activity reduction – plasminogen activation absorbance, OD405, dose response (AID 1914); assay type: functional, Streptococcus pyogenes M1 GAS;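 also: secreted streptokinase activity via plasminogen activation per viability signal from cell pellet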
# T5 sequence (P10520 whole entry): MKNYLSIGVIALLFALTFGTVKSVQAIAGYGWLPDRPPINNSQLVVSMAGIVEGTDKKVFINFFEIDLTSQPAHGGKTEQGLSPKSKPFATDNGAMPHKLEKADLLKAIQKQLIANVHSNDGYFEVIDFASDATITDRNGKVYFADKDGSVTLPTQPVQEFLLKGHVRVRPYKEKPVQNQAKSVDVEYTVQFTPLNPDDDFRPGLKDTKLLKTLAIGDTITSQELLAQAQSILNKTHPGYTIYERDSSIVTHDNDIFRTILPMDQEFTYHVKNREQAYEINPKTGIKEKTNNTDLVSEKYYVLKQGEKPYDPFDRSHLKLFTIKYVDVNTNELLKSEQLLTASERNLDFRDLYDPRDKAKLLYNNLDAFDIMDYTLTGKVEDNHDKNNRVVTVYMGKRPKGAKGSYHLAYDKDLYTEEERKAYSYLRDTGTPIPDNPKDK
# Streptococcus = test: GAS UMAA2166 growth inhibition – luminescence, BacTiterGlo, counter-screen for streptokinase expression inhibitor project, dose response (AID 1915); assay type: functional, organism-based;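 also: potency for reduction of bacterial viability or growth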
# [19] = biological target: Disintegrin and metalloproteinase domain-containing protein 17 (Homo sapiens, UniProt P78536); test: inhibition of ADAM17 substrate cleavage – biochemical, quenched FRET substrate, counter-screen for ADAM10 exosite inhibitor project, dose response (AID 743253)
# NS3 = NS3 (Hepatitis C virus, UniProt A3EZJ3); test: PubChem AID 2173; set-up: species or system Hepacivirus hominis
# Chain of NS3 (A3EZJ3 whole entry): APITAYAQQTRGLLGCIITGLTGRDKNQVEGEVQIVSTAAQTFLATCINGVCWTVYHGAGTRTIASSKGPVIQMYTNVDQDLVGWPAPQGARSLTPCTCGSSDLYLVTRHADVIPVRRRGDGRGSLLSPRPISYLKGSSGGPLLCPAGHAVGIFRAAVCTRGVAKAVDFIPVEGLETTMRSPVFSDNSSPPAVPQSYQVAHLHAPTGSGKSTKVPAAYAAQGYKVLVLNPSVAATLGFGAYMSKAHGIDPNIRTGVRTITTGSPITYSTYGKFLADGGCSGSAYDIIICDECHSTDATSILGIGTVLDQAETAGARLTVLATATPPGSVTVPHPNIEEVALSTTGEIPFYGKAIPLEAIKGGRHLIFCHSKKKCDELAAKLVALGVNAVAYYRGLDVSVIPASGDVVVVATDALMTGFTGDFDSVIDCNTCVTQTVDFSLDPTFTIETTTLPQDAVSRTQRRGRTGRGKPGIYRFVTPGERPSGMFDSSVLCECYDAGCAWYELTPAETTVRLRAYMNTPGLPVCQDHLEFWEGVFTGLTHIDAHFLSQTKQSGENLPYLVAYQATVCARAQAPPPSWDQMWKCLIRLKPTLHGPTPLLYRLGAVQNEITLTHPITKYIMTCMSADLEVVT
# [20] = Trypanosoma cruzi growth suppression in host cells – NIH3T3 host cells, beta-gal luminescence, confirmation (AID 2044); assay type: functional, cell-based;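 also: intracellular parasites grown in NIH/3T3 mouse fibroblasts as host cells; luminescent beta-galactosidase reporter signal from transgenic T. cruzi replicating inside host cells; inhibitors lower the luminescence signal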
# [21] = NIH3T3 cell viability loss – ATP luminescence, mouse fibroblasts, counter-screen, dose response (AID 2010); assay type: functional, cell-based;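 also: cells exposed to compound for about 90 hours before reading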
# [22] = Luminescence Cell-Based Dose Confirmation HTS to Identify Inhibitors of Polyadenylation.; assay type: functional
# [23] = biological target: Sphingosine 1-phosphate receptor 4 (Homo sapiens, UniProt O95977); test: Fluorescence dose response cell-based high throughput screening assay for antagonists of the Sphingosine 1-Phosphate Receptor 4 (S1P4). [Related pubchem assays: 1524 (Confirmation in triplicates.), 1510 (Primary screen.)]; assay type: functional
# 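For AC50 in this document: cells exposed to compound for roughly 70 hours or longer before luminescence read.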
structure (smiles),measurement,setting,value
C=CCN1C=C/C(=C/c2ccc3cc(C)ccc3[n+]2CC)c2ccccc21,IC50,[1],32.9 µM (active)
same,IC50,Nonstructural protein 1,7.64 µM (active)
same,CC50,Vero,4.96 µM (active)
CC(C)c1nc2sc3c(S)ncnc3c2c2c1CCC2,CC50,[2],14.3 µM (active)
same,IC50,[3],> 50 µM (not active)
same,IC50,[4],42.2 µM (not active)
COC(=O)C1=C(C)N(C)C(C)=C(C(=O)OC)C1c1ccc(C(=O)OC)cc1,IC50,14-3-3 protein gamma,> 50 µM (not active)
CC(c1ccccc1)C(Cc1nc2ccccc2[nH]1)c1nc2ccccc2[nH]1 (centres undefined),EC50,[5],61.3 µM (not active)
CCOC(=O)c1s/c(=N\C(=O)c2cc(OC)c(OC)c(OC)c2)n(C)c1C,EC50,[6],30 µM (not active)
same,EC50,[7],42 µM (not active)
same,EC50,[8],49.7 µM (not active)
NC(=O)c1cccc2c1C(=O)N(C1CCCCC1)C2,IC50,Estrogen receptor beta,12.5 µM (active)
same,IC50,H9c2,> 79 µM (inactive)
Cc1ccc(CN2CCN(Cc3cccc(OCCO)c3)CC2CCO)o1 (centres undefined),EC50,[6],> 79.4 µM (not active)
same,EC50,[7],> 79.4 µM (not active)
same,EC50,[8],> 79.4 µM (not active)
same,EC50,[9],> 195 µM (not active)
CN(Cc1ccccc1)C(=S)NC(=O)c1ccc(-c2ccccc2)cc1,CC50,[10],> 40 µM (active)
Cc1cc(C2(c3ccc(O)c(C)c3)C(=O)Nc3ccccc32)ccc1O,EC50,[11],17.4 µM (active)
same,EC50,[12],17 µM (active)
same,AC50,[13],5.36 µM (active)
same,Absolute IC50 (XBP1),X-box-binding protein 1,10 µM
C#CCN(C)C(C)Cc1ccccc1 (centres undefined),IC50,14-3-3 protein gamma,> 50 µM (not active)
Cc1cc(N2CCCCCC2)nc(-c2ccccc2O)n1,CC50,[10],> 40 µM (active)
Cc1cc(C)c(NC(=O)Cn2c(=O)n(-c3ccc(CC(=O)NCC4CCCO4)cc3)c(=O)c3ccccc32)c(C)c1 (centres undefined),EC50,[5],> 100 µM (not active)
CCc1ccc(/C=C2\SC(=S)N(CCC(=O)NC3=NCCS3)C2=O)cc1,IC50,[14],> 80 µM (inactive)
CN(C)C=O.O=C(Nc1cccc(S(=O)(=O)NC2=NCCCCC2)c1)c1cc(-c2ccco2)nc2ccccc12,IC50,Genome polyprotein,> 49.8 µM (not active)
same,IC50,[15],1.69 µM (active)
same,IC50,[16],6.77 µM (active)
same,IC50,[17],23.1 µM (active)
COc1ccc(CCN2C(=O)c3[nH]nc(-c4ccccc4O)c3C2c2cccc(Cl)c2)cc1 (centres undefined),EC50,[18],5.5 µM (active)
same,EC50,Streptokinase A,17.1 µM (active)
same,EC50,Streptococcus,17.6 µM (active)
same,Absolute IC50 (XBP1),X-box-binding protein 1,10 µM
same,IC50,[19],> 69.5 µM (inactive)
O=C(CCCSc1ccccc1)Nc1nc(-c2ccco2)c(-c2ccco2)s1,IC50,NS3,5.62 µM (active)
O=C(Nc1ccncc1)Nc1cccc(Cl)c1Cl,EC50,[20],< 0.1 µM (active)
same,EC50,[21],> 60 µM (not active)
same,EC50,cells,0.209 µM (active)
O=C(Nc1ccc(F)cc1)C1C(c2ccccc2)C1(Cl)Cl (centres undefined),IC50,[3],> 50 µM (not active)
same,IC50,[4],> 50 µM (not active)
CCN(CC)C(=O)Oc1ccc2c(c1)O/C(=C\c1ccco1)C2=O,EC50,[22],> 120 µM (not active)
CN[C@H]1C[C@H]2O[C@@](C)([C@H]1OC)n1c3ccccc3c3c4c(c5c6ccccc6n2c5c31)C(=O)NC4,IC50,[23],0.183 µM (active)
C=CCn1c(SCC(=O)NCCCC)nc2scc(-c3ccco3)c2c1=O,IC50,NS3,37.5 µM (not active)
